Data: article PMC5706701, “Development of a homogenous high-throughput assay for inositol hexakisphosphate kinase 1 activity” (PLoS ONE, 2017)
Counter-ions that a name gives are not always drawn. Like-named read-outs stand apart in the source and are kept apart here.

Target: T1, Human IP6K1 (Homo sapiens, UniProt Q92551)
T1 construct: GST (N, cleaved yes); made in house; host or cells: C43 E. coli, pGEX-6P-2
Test: IP6K1 high-throughput screen of the Sigma LOPAC (ADP-Glo Max, single point);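 also: final compound concentration 10µM in 5% DMSO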
Assay type: biochemical

[1] = Sigma LOPAC single-point screen, ADP-Glo Max raw signal per well
[2] = Sigma LOPAC single-point screen, Z-score from plate average and StDev
[3] = LOPAC single-point screen, ADP-Glo Max luminescence raw signal per well
[4] = LOPAC single-point screen, Z-score relative to plate average and StDev
[5] = LOPAC single-point screen, ADP-Glo Max raw signal per well
[6] = LOPAC single-point screen, Z-score from raw signal with plate average and StDev
[7] = LOPAC single-point screen, Z-score from plate average and StDev
[8] = LOPAC single-point screen, Z-score against plate average and StDev

T1 sequence (Q92551 whole entry): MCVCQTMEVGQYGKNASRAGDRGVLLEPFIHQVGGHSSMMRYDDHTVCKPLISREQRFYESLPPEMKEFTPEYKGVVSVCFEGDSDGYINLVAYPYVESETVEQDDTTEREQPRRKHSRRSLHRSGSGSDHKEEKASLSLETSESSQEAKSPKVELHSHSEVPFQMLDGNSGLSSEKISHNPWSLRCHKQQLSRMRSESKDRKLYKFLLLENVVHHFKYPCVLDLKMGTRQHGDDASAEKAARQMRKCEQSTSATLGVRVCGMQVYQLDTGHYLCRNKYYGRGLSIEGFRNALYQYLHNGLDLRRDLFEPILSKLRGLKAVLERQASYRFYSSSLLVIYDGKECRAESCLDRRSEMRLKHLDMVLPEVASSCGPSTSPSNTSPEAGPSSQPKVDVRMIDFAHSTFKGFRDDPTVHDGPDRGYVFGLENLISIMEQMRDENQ

Compound: CC[C@@H](CO)NC(=O)[C@@H]1C=C2c3cccc4[nH]cc(c34)C[C@H]2N(C)C1 [Methylergonovine maleate]
- Raw Signal [1]: 56663
- Z-score [2]: 0.3813

Compound: Nc1ccc(N2C(=O)c3ccccc3C2=O)c(Cl)c1 [N-(4-Amino-2-chlorophenyl)phthalimide]
- Raw Signal [1]: 61206
- Z-score [2]: 0.58

Compound: C#CCN(C)CCCOc1ccc(Cl)cc1Cl [Clorgyline hydrochloride]
- Raw Signal [3]: 50699
- Z-score [4]: -0.6208

Compound: Cn1c(=O)c2[nH]c(-c3ccc(S(=O)(=O)O)cc3)nc2n(C)c1=O [8-(p-Sulfophenyl)theophylline]
- Raw Signal [5]: 56907
- Z-score [6]: -0.1772

Compound: Cc1ccc(=O)n(-c2ccccc2)c1 [Pirfenidone]
- Raw Signal [5]: 52089
- Z-score [6]: -0.3872

Compound: NCCCCN=C(N)N [Agmatine sulfate]
- Raw Signal [5]: 56032
- Z-score [6]: -0.3313

Compound: CC(C)[N+](C)(CCOC(=O)C1c2ccccc2Oc2ccccc21)C(C)C [Propantheline bromide]
- Raw Signal [1]: 58434
- Z-score [2]: 0.4683

Compound: CN(Cc1cnc2nc(N)nc(N)c2n1)c1ccc(C(=O)N[C@@H](CCC(=O)O)C(=O)O)cc1 [(-)Amethopterin]
- Raw Signal [1]: 61362
- Z-score [2]: 0.6074

Compound: CC(C)N(CCC(C(N)=O)(c1ccccc1)c1ccccn1)C(C)C (centres unmarked) [Disopyramide]
- Raw Signal [3]: 43822
- Z-score [4]: -2.304

Compound: COc1cc([C@@H]2c3cc4c(cc3[C@@H](O[C@@H]3O[C@@H]5CO[C@@H](C)O[C@H]5[C@H](O)[C@H]3O)[C@H]3COC(=O)[C@H]23)OCO4)cc(OC)c1O [Etoposide]
- Raw Signal [5]: 53339
- Z-score [6]: -0.3713

Compound: CC(=O)N[C@@H](CS)C(=O)O [N-Acetyl-L-Cysteine]
- Raw Signal [1]: 65323
- Z-score [2]: 1.305

Compound: CC1CNCCN1S(=O)(=O)c1cccc2cnccc12.Cl.Cl (centres unmarked) [H-7 dihydrochloride]
- Raw Signal [3]: 51716
- Z-score [4]: -0.7009

Compound: O=C(O)Cc1ccccc1Nc1c(Cl)cccc1Cl [Diclofenac sodium]
- Raw Signal [5]: 53274
- Z-score [6]: -0.3845

Compound: CN(C)CCCO[C@@H]1[C@H]2OC(C)(C)O[C@H]2O[C@@H]1[C@H](O)CO [Amiprilose hydrochloride]
- Raw Signal [3]: 53728
- Z-score [4]: -0.7371

Compound: CNc1ncnc2c1ncn2[C@H]1C[C@H](OP(=O)(O)O)[C@@H](COP(=O)(O)O)O1 [MRS 2179]
- Raw Signal [3]: 51414
- Z-score [4]: -0.5006

Compound: LY-367,265
- Raw Signal [3]: 62501
- Z-score [7]: 1.362

Compound: O=C(O)CP(=O)(O)O [Phosphonoacetic acid]
- Raw Signal [5]: 54653
- Z-score [6]: -0.2663

Compound: CSC(N)=NCCC[C@H](N)C(=O)O [S-Methyl-L-thiocitrulline acetate]
- Raw Signal [5]: 53034
- Z-score [6]: -0.2284

Compound: CC(=O)C(C)=NO [2,3-Butanedione monoxime]
- Raw Signal [3]: 66346
- Z-score [7]: 1.485

Compound: CCN(CC)C(=O)c1ccc(O)c(OC)c1 [Vanillic acid diethylamide]
- Raw Signal [5]: 56150
- Z-score [8]: 0.1996

Compound: CCCCS(=N)(=O)CCC(N)C(=O)O (racemic) [DL-Buthionine-[S,R]-sulfoximine]
- Raw Signal [3]: 66724
- Z-score [7]: 1.552

Compound: O=c1nc2[nH]c3ccccc3nc-2c(=O)[nH]1 [Alloxazine]
- Raw Signal [5]: 56241
- Z-score [6]: -0.2945

Compound: NC(C(=O)O)C(O)C(=O)O (racemic) [DL-threo-beta-hydroxyaspartic acid]
- Raw Signal [3]: 64938
- Z-score [7]: 1.984

Compound: CC(=O)NCCc1c[nH]c2ccccc12 [N-Acetyltryptamine]
- Raw Signal [3]: 53398
- Z-score [4]: -0.7952

Compound: COc1cc(CC(=O)O)ccc1O [4-Hydroxy-3-methoxyphenylacetic acid]
- Raw Signal [1]: 58602
- Z-score [2]: 0.6976

Compound: CN1C[C@H](O)[C@@H](O)[C@H](O)[C@H]1CO [N-Methyl-1-deoxynojirimycin]
- Raw Signal [5]: 53171
- Z-score [6]: -0.2054

Compound: CCCCCCCCCCCCCCCC(=O)NCC(COP(=O)([O-])OCC[N+](C)(C)C)OCC (racemic)
- Raw Signal [3]: 63126
- Z-score [7]: 1.616

Compound: CCCN1CCOC2c3cc(O)ccc3OCC21.Cl (racemic) [(±)-PD 128,907 hydrochloride]
- Raw Signal [3]: 53572
- Z-score [4]: -0.4763

Compound: CC(C)c1cccc(C(C)C)c1O [Propofol]
- Raw Signal: 48098
- Z-score: -1.436

Compound: COc1ccc(CCN(C)CCCC(C#N)(c2cc(OC)c(OC)c(OC)c2)C(C)C)cc1OC.Cl (racemic) [(±)-Methoxyverapamil hydrochloride]
- Raw Signal [5]: 52492
- Z-score [6]: -0.3195

Compound: CC(=O)[C@H]1CC[C@H]2[C@@H]3CC=C4C[C@@H](OS(=O)(=O)[O-])CC[C@]4(C)[C@H]3CC[C@]12C.[Na+] [Pregnenolone sulfate sodium]
- Raw Signal [3]: 62981
- Z-score [7]: 1.352

Compound: COc1cc(OC)c(C=C2C(O)=Nc3ccccc32)c(OC)c1 [IC 261]
- Raw Signal [5]: 54461
- Z-score [6]: -0.3036

Compound: CCCCCCCC/C=C\CCCCCCCC(=O)O [Oleic Acid]
- Raw Signal [5]: 53829
- Z-score [6]: -0.09485

Compound: O=C(O)c1cc(=O)c2c(Cl)cc(Cl)cc2[nH]1 [5,7-Dichlorokynurenic acid]
- Raw Signal [3]: 49912
- Z-score [4]: -1.067

Compound: O=[N+]([O-])c1ccc(O[C@@H]2O[C@H](CO)[C@@H](O)[C@H](O)[C@H]2F)c([N+](=O)[O-])c1
- Raw Signal [3]: 50009
- Z-score [4]: -1.048

Compound: O=C(CCNNC(=O)c1ccncc1)NCc1ccccc1 [Nialamide]
- Raw Signal [5]: 52793
- Z-score [6]: -0.2689

Compound: C[C@H](N)CN1CCc2ccc(Br)cc21.C[C@H](N)CN1CCc2ccc(Br)cc21.O=C(O)/C=C/C(=O)O [VER-3323 hemifumarate salt]
- Raw Signal [1]: 59728
- Z-score [2]: 0.8963

Compound: CC(C[N+](C)(C)C)OC(N)=O (centres unmarked) [Bethanechol chloride]
- Raw Signal [5]: 59240
- Z-score [8]: 0.2337

Compound: Cc1ccccc1/C=C/C1=NCCN1 [Metrazoline oxalate]
- Raw Signal [3]: 51543
- Z-score [4]: -0.479

Compound: Cl.Clc1ccc(N2CCN(Cc3c[nH]c4ncccc34)CC2)cc1 [L-745,870 hydrochloride]
- Raw Signal [5]: 55866
- Z-score [8]: 0.2474

Compound: NC(CO)(CO)CO.O=C(c1ccccc1)c1ccc2n1CCC2C(=O)O (centres unmarked) [Ketorolac tris salt]
- Raw Signal [3]: 48098
- Z-score [4]: -1.058

Compound: O=c1c(O)c(-c2ccc(O)c(O)c2)oc2cc(O)cc(O)c12 [Quercetin dihydrate]
- Raw Signal [3]: 52548
- Z-score [4]: -0.6753

Compound: N=C(N)NC(=O)Cc1c(Cl)cccc1Cl [Guanfacine hydrochloride]
- Raw Signal [5]: 54831
- Z-score [8]: -0.06825

Compound: CC1=C(C)C(=O)C(CCCCC#CCCCC#CCO)=C(C)C1=O [AA-861]
- Raw Signal [3]: 50345
- Z-score [4]: -1.333

Compound: CC1CCN(CC[C@H]2CCCN2S(=O)(=O)c2cccc(O)c2)CC1.Cl [SB 269970 hydrochloride]
- Raw Signal [5]: 57058
- Z-score [8]: 0.2009

Compound: CCN(CC)CCNC(=O)c1ccc(NC(C)=O)cc1.Cl [N-Acetylprocainamide hydrochloride]
- Raw Signal [3]: 70393
- Z-score [7]: 2.198

Compound: c1ccc2cc(-c3ncc[nH]3)ccc2c1 [Benazoline oxalate]
- Raw Signal [1]: 61441
- Z-score [2]: 0.6214

Compound: CNCCCC1c2ccccc2C=Cc2ccccc21 [Protriptyline hydrochloride]
- Raw Signal [5]: 55179
- Z-score [6]: -0.1641

Compound: CCCN(CCC)CCc1ccc(O)c(O)c1 [Dipropyldopamine hydrobromide]
- Raw Signal [3]: 52448
- Z-score [4]: -0.5522

Compound: Oc1ccc(O)cc1 [Hydroquinone]
- Raw Signal [1]: 59753
- Z-score [2]: 0.9314

Compound: C[C@@H]1O[C@@H](O[C@H]2C[C@@H](O)[C@]3(CO)[C@H]4[C@H](O)C[C@]5(C)[C@@H](C6=CC(=O)OC6)CC[C@]5(O)[C@@H]4CC[C@]3(O)C2)[C@H](O)[C@H](O)[C@H]1O [Ouabain]
- Raw Signal [1]: 56928
- Z-score [2]: 0.4259

Compound: CCCN1CCC[C@H](c2cccc(O)c2)C1.Cl [R(+)-3PPP hydrochloride]
- Raw Signal [3]: 50646
- Z-score [4]: -1.045

Compound: COc1ccc(C(=O)N2CCCC2=O)cc1 [Aniracetam]
- Raw Signal [5]: 56032
- Z-score [6]: -0.3313

Compound: O=C(O)CCC(C(=O)O)N1C(=O)c2ccccc2C1=O [L-Glutamic acid, N-phthaloyl-]
- Raw Signal [1]: 59775
- Z-score [2]: 0.9042

Compound: CCCCCCCCCCCCCCCCCC(=O)NCC(COP(=O)([O-])OCC[N+](C)(C)C)OCC (racemic)
- Raw Signal [3]: 62966
- Z-score [7]: 1.584

Compound: N[C@H](C(=O)O)[C@H]1C[C@@H]1C(=O)O
- Raw Signal [5]: 55555
- Z-score [8]: 0.07879

Compound: OCCN1CCN(CCCN2c3ccccc3Sc3ccc(Cl)cc32)CC1 [Perphenazine]
- Raw Signal [1]: 57078
- Z-score [2]: 0.4511

Compound: O=C(O)[C@H]1CCCN[C@H]1C(=O)O (racemic)
- Raw Signal [1]: 60739
- Z-score [2]: 0.9161

Compound: CNC(=O)c1cc2c(cn1)[nH]c1ccccc12 [N-Methyl-beta-carboline-3-carboxamide]
- Raw Signal [1]: 57600
- Z-score [2]: 0.4941

Compound: NNCc1cccc(O)c1 [3-Hydroxybenzylhydrazine dihydrochloride]
- Raw Signal [5]: 53590
- Z-score [6]: -0.3203

Compound: S=C([S-])OC1CC2CC1C1CCCC21.[K+] [D-609 potassium]
- Raw Signal [5]: 55448
- Z-score [6]: -0.1119

Compound: COc1cc2ncnc(Nc3cccc(Cl)c3)c2cc1OC [Tyrphostin AG 1478]
- Raw Signal [1]: 57891
- Z-score [2]: 0.3628

Compound: Cl.Cl.Clc1cccc(N2CCNCC2)c1
- Raw Signal [1]: 60295
- Z-score [2]: 0.4195

Compound: C[C@]12CCC(=O)C=C1CC[C@@H]1[C@@H]2CC[C@@]2(C)[C@H]1CC[C@]2(O)C(=O)CO [Cortexolone]
- Raw Signal [5]: 55575
- Z-score [8]: -0.08719
